Source: patent US20110158980A1, “METHODS TO TREAT AND SCREEN FOR AGENTS TO TREAT OBESITY” (TRUSTEES OF TUFTS COLLEGE, priority 2008, published 2011)

System: 3T3-L1 adipocytes
Experiment: Metabolic flux analysis (stoichiometric model) of adipocyte intermediary metabolism
Format: cell-based
Method: 3T3-L1 preadipocytes were plated onto 24-well plates and expanded in preadipocyte growth medium consisting of DMEM supplemented with calf serum (10% v/v), penicillin and streptomycin. Medium was replenished every other day. Two days post-confluence, the cells were induced to differentiate using an adipogenic cocktail (1 μg/ml insulin, 0.5 mM isobutylmethylxanthine, and 1 μM dexamethasone) added to a basal medium (DMEM with 10% fetal bovine serum and penicillin/streptomycin). After 48 hrs, the first medium was replaced with a second induction medium consisting of the basal adipocyte medium supplemented with only insulin. […] This basal medium was replenished every other day during the remainder of the culture experiments.
A stoichiometric model of adipocyte central carbon metabolism was constructed as described previously (Si Y, Yoon J, Lee K. American journal of physiology 2007; 292:E1637-46). The model consisted of the major pathways of central carbon metabolism (Table 1). Intracellular fluxes were estimated by solving a constrained non-linear optimization problem with stoichiometric and thermodynamic constraints (Nolan R P, Fenley A P, Lee K. Metab Eng 2006; 8:30-45).

[1] = PA 10 mM, day 12 post-induction

In the case of `O=C(O)Cc1ccccc1` [phenylacetate], the “Flux RXN 65 Mitochondrial exchange: 2-Oxoglutarate in, Malate out” value (PA 5 mM, day 12 post-induction) was 36.9 ± 7.3 mmol/g-DNA/2 days, the “Flux RXN 66 Mitochondrial exchange: Pi in, Malate out” value (PA 5 mM, day 12 post-induction) was 79.9 ± 9.7 mmol/g-DNA/2 days and the “Flux RXN 1 Glycolysis: Glucose + ATP = Glucose 6-P + ADP” value [1] was 341.0 ± 14.4 mmol/g-DNA/2 days. For the same compound, the “Flux RXN 3 Glycolysis: Fructose 6-P + ATP = Glyceraldehyde 3-P + Glycerone-P + ADP” value [1] was 332.9 ± 13.7 mmol/g-DNA/2 days, the “Flux RXN 4 Glycolysis: Glycerone-P = Glyceraldehyde 3-P” value [1] was 309.4 ± 13.0 mmol/g-DNA/2 days and the “Flux RXN 5 Glycolysis: Glyceraldehyde 3-P + NAD+ + ADP + Pi = P-Enolpyruvate + ATP + H2O” value [1] was 650.5 ± 26.0 mmol/g-DNA/2 days. The “Flux RXN 6 Glycolysis: P-Enolpyruvate + ADP + H+ = Pyruvate + ATP” value [1] was 725.6 ± 35.8 mmol/g-DNA/2 days, the “Flux RXN 7 Glycolysis: Pyruvate + NADH + H+ = Lactate + NAD+” value [1] was 427.8 ± 9.4 mmol/g-DNA/2 days and the “Flux RXN 8 Pentose phosphate pathway: Glucose 6-P + 2 NADP+ + H2O = Ribulose 5-P + CO2 + 2 NADPH + 2 H+” value [1] was 24.3 ± 18.5^ mmol/g-DNA/2 days. The “Flux RXN 9 Pentose phosphate pathway: 3 Ribulose 5-P = 2 Fructose 6-P + Glyceraldehyde 3-P” value [1] was 8.1 ± 6.2^ mmol/g-DNA/2 days, the “Flux RXN 10 TCA cycle (mitochondria) (PDC)” value [1] was 233.7 ± 25.1 mmol/g-DNA/2 days and the “Flux RXN 12 TCA cycle (mitochondria)” value [1] was 132.2 ± 19.3 mmol/g-DNA/2 days. For the same compound, the “Flux RXN 13 TCA cycle (mitochondria)” value [1] was 158.6 ± 26.1 mmol/g-DNA/2 days, the “Flux RXN 14 TCA cycle (mitochondria)” value [1] was 169.9 ± 26.6 mmol/g-DNA/2 days and the “Flux RXN 15 TCA cycle (mitochondria)” value [1] was 170.1 ± 27.0 mmol/g-DNA/2 days. The “Flux RXN 16 TCA cycle (mitochondria)” value [1] was 110.2 ± 17.8 mmol/g-DNA/2 days, the “Flux RXN 17 TCA cycle: Citrate + CoA + ATP = Acetyl-CoA + Oxaloacetate + ADP + Pi” value [1] was 75.1 ± 16.4 mmol/g-DNA/2 days and the “Flux RXN 18 TCA cycle: Oxaloacetate + NADH + H+ = Malate + NAD+” value [1] was 0.0 ± 0.0^ mmol/g-DNA/2 days. The “Flux RXN 19 TCA cycle: Malate + NADP+ = Pyruvate + CO2 + NADPH” value [1] was 59.9 ± 9.2 mmol/g-DNA/2 days, the “Flux RXN 20 TCA cycle: Citrate + NADP+ = 2-Oxoglutarate + CO2 + NADPH + H+” value [1] was 26.4 ± 6.9 mmol/g-DNA/2 days and the “Flux RXN 21 TCA cycle: Oxaloacetate + ATP = P-Enolpyruvate + CO2 + ADP” value [1] was 75.1 ± 16.4 mmol/g-DNA/2 days. The “Flux RXN 22 Oxidative phosphorylation (NADH + 0.5 O2)” value [1] was 213.9 ± 89.2 mmol/g-DNA/2 days, the “Flux RXN 23 Oxidative phosphorylation (FADH2 + 0.5 O2)” value [1] was 189.1 ± 27.3 mmol/g-DNA/2 days and the “Flux RXN 24 Palmitate biosynthesis” value [1] was 9.4 ± 2.0 mmol/g-DNA/2 days. The “Flux RXN 25 Tripalmitoylglycerol biosynthesis: Glycerone-P + 3 Palmitate to Tripalmitoylglycerol” value [1] was 23.5 ± 3.0 mmol/g-DNA/2 days, the “Flux RXN 26 Tripalmitoylglycerol + 3 H2O = Glycerol + 3 Palmitate” value [1] was 20.6 ± 2.4 mmol/g-DNA/2 days and the “Flux RXN 27 Tripalmitoylglycerol accumulation” value [1] was 2.9 ± 0.6 mmol/g-DNA/2 days. The “Flux RXN 28 Metabolism of ketone bodies” value [1] was 7.8 ± 0.2 mmol/g-DNA/2 days, the “Flux RXN 29 Metabolism of ketone bodies” value [1] was 0.0 ± 0.0^ mmol/g-DNA/2 days and the “Flux RXN 30 Metabolism of ketone bodies (to 3-Hydroxybutyrate)” value [1] was 15.9 ± 0.7 mmol/g-DNA/2 days. For the same compound, the “Flux RXN 31 Amino acid metabolism: Pyruvate + NH4+ + NADPH = Alanine” value [1] was 0.5 ± 0.1 mmol/g-DNA/2 days, the “Flux RXN 32 Amino acid metabolism: Aspartate + NH4+ = Asparagine” value [1] was 2.9 ± 0.2 mmol/g-DNA/2 days and the “Flux RXN 33 Amino acid metabolism: Aspartate = Oxaloacetate + NH4+ + NADH” value [1] was 0.0 ± 0.0^ mmol/g-DNA/2 days. The “Flux RXN 34 Amino acid metabolism: Cysteine = Pyruvate + NH4+ + NADH” value [1] was 0.0 ± 0.0^ mmol/g-DNA/2 days, the “Flux RXN 35 Amino acid metabolism: Glutamate = 2-Oxoglutarate + NH4+ + NADH” value [1] was 0.0 ± 0.0 mmol/g-DNA/2 days and the “Flux RXN 36 Amino acid metabolism: Glutamate + NH4+ + ATP = Glutamine” value [1] was 0.0 ± 0.0 mmol/g-DNA/2 days. The “Flux RXN 37 Amino acid metabolism: Serine + THF = Glycine” value [1] was 6.2 ± 0.4^ mmol/g-DNA/2 days, the “Flux RXN 38 Amino acid metabolism: Histidine + THF = Glutamate + NH4+” value [1] was 0.5 ± 0.1 mmol/g-DNA/2 days and the “Flux RXN 39 Amino acid metabolism: Isoleucine + 2 CoA” value [1] was 7.5 ± 0.2 mmol/g-DNA/2 days. The “Flux RXN 40 Amino acid metabolism: Leucine + CoA + CO2 + ATP” value [1] was 7.9 ± 0.2 mmol/g-DNA/2 days, the “Flux RXN 41 Amino acid metabolism: Lysine = 2-Oxoadipate + 2 NH4+ + 3 NADH” value [1] was 0.0 ± 0.0^ mmol/g-DNA/2 days and the “Flux RXN 42 Amino acid metabolism: 2-Oxoadipate + CoA” value [1] was 0.0 ± 0.0^ mmol/g-DNA/2 days. The “Flux RXN 43 Amino acid metabolism: Methionine + Serine + ATP + CoA + THF” value [1] was 0.0 ± 0.0^ mmol/g-DNA/2 days, the “Flux RXN 44 Amino acid metabolism: Phenylalanine + O2 + NADH = Tyrosine” value [1] was 0.1 ± 0.3^ mmol/g-DNA/2 days and the “Flux RXN 45 Amino acid metabolism: Glutamate + ATP + 2 NADPH = Proline” value [1] was 1.5 ± 0.1 mmol/g-DNA/2 days. For the same compound, the “Flux RXN 46 Amino acid metabolism: Serine = Pyruvate + NH4+” value [1] was 0.0 ± 0.0^ mmol/g-DNA/2 days, the “Flux RXN 47 Amino acid metabolism: Threonine + CoA to Glycine” value [1] was 0.2 ± 0.2 mmol/g-DNA/2 days and the “Flux RXN 48 Amino acid metabolism: Tryptophan + 3 O2 + NADPH = 2-Oxoadipate + Alanine + CO2 + NH4+” value [1] was 0.0 ± 0.0^ mmol/g-DNA/2 days. The “Flux RXN 49 Amino acid metabolism: Tyrosine + 2 O2” value [1] was 0.2 ± 0.5^ mmol/g-DNA/2 days, the “Flux RXN 50 Amino acid metabolism: Valine + CoA” value [1] was 3.8 ± 0.4 mmol/g-DNA/2 days and the “Flux RXN 51 Plasma exchange: Palmitate” value [1] was 0.8 ± 0.1 mmol/g-DNA/2 days. For the same compound, the “Flux RXN 52 Plasma exchange: Acetoacetate” value [1] was 0.0 ± 0.1 mmol/g-DNA/2 days, the “Flux RXN 53 Plasma exchange: Alanine” value [1] was 0.5 ± 0.1 mmol/g-DNA/2 days and the “Flux RXN 54 Plasma exchange: Aspartate” value [1] was 2.9 ± 0.2 mmol/g-DNA/2 days. For the same compound, the “Flux RXN 55 Plasma exchange: Cysteine” value [1] was 0.0 ± 0.0^ mmol/g-DNA/2 days, the “Flux RXN 56 Plasma exchange: Glutamate” value [1] was 0.9 ± 0.1 mmol/g-DNA/2 days and the “Flux RXN 57 Plasma exchange: Glycine” value [1] was 6.4 ± 0.4 mmol/g-DNA/2 days. The “Flux RXN 58 Plasma exchange: Serine” value [1] was 6.2 ± 0.4^ mmol/g-DNA/2 days, the “Flux RXN 59 Plasma exchange: Tyrosine” value [1] was 0.1 ± 0.2^ mmol/g-DNA/2 days and the “Flux RXN 60 Plasma exchange: O2 (calculated oxygen uptake rate)” value [1] was 202.1 ±59.1 *^ mmol/g-DNA/2 days. For the same compound, the “Flux RXN 61 Plasma exchange: CO2” value [1] was 582.8 ± 66.5 mmol/g-DNA/2 days, the “Flux RXN 62 Plasma exchange: NH4+” value [1] was 16.5 ± 1.3 mmol/g-DNA/2 days and the “Flux RXN 63 Mitochondrial exchange: Pyruvate” value [1] was 357.2 ± 37.5 mmol/g-DNA/2 days. The “Flux RXN 64 Mitochondrial exchange: Malate in, Citrate out” value [1] was 101.5 ± 16.0 mmol/g-DNA/2 days, the “Flux RXN 65 Mitochondrial exchange: 2-Oxoglutarate in, Malate out” value [1] was 26.4 ± 6.9 mmol/g-DNA/2 days and the “Flux RXN 66 Mitochondrial exchange: Pi in, Malate out” value [1] was 59.9 ± 9.2 mmol/g-DNA/2 days. For the same compound, the “Decrease of flux through phosphoenolpyruvate carboxykinase” value (phenylacetate) was 40%, the “Reduction of de novo fatty acid synthesis” value (phenylacetate) was about 40% and the “Reduction of triglyceride accumulation” value (phenylacetate) was 40%. For the same compound, the “Increase of flux through glycolysis” value (phenylacetate (5 and 10 mM), day 12 post-induction) was 15˜60%, the “Decrease of total flux of pyruvate into the mitochondrial reactions” value (phenylacetate at the higher concentration (10 mM)) was 29% and the “Decrease of flux through the PPP” value (phenylacetate, noted only for the 5 mM condition) was 83%. For the same compound, the “Increase of fluxes through other lipogenic reactions (including esterification)” value (phenylacetate, higher concentration having the larger effect) was 64˜75%.
